Test results taken from US20260258473A1, “FLUORESCENT PROBE FOR DETECTION OF ENPP ACTIVITY” (THE UNIVERSITY OF TOKYO, priority 2019, published 2026).

Biological target: ENPP2 (Homo sapiens, UniProt Q13822)
Experiment: Measurement of plasma sample using a plate reader (ENPP probe fluorescence with and without serum)
Format: biochemical
Conditions: compound at 10 μmol/L, ENPP2 at 25 μg/mL, human serum diluted by 10 times vs no serum, multi-well plate, Tris-HCl pH 8.3
Experimental: First, compounds (4) was diluted to 10 μmol/L with an assay buffer. The assay buffer has the composition of Tris-HCl buffer solution (pH 8.3), magnesium chloride at 1.0 mmol/L and 0.5% CHAPS. Subsequently, ENPP2 at 25 μg/mL and human serum diluted by 10 times were added, and the mixture was dispensed into a multi-well plate. Subsequently, the fluorescence intensity was measured with a plate reader. […] On the other hand, as described above, the measurement method using a microdevice enabled the activity of ENPP to be adequately measured even in the presence of serum.

SMILES: COc1cc(OC)c(S(=O)(=O)O)cc1-c1c2ccc(=O)cc-2oc2cc(OCOP(=O)(O)OCC3OC(n4cc(C)c(=O)[nH]c4=O)CC3O)ccc12 (stereo not shown) [Compound (4)]
- measured intensity of the activity of ENPP (fluorescence intensity): lower when serum was present than when serum was not present
